Laboratory results: PMC6736568, “Discovery of Novel Anti-cryptosporidial Activities From Natural Products by in vitro High-Throughput Phenotypic Screening” (Frontiers in Microbiology, 2019)

How the values were obtained:
HCT-8 host cells (Hs18S) = conditions: primary screening at 10 uM; for Hs18S ΔCT: treated vs control; for Cytotoxicity (%): from Hs18S ΔCT
Cryptosporidium parvum = assay: qRT-PCR assay of the growth of C. parvum in vitro in HCT-8 host cells (primary and secondary screening, EC50); assay type: cell-based

Compound	Hs18S ΔCT (HCT-8 host cells (Hs18S))	further results
CC1(C)C(=O)C=C[C@]2(C)[C@H]3CC[C@@]4(C)[C@H](c5ccoc5)OC(=O)[C@H]5O[C@]54[C@]3(C)C=C[C@@H]12 [7-DESACETOXY-6,7-DEHYDROGEDUNIN]	5.31	
C=CCc1cc(OC)c2c(c1OC)OCO2 [APIOLE]	0.06	
CN1CCc2cc3c(cc2[C@H]1[C@@H]1OC(=O)c2c1ccc1c2OCO1)OCO3 [BICUCULLINE (+)]	-1.43	Cytotoxicity (%) (HCT-8 host cells (Hs18S)): -169.4%
CC12CCC(CC1=O)C2(C)C [CAMPHOR (1R)]	-0.22	
COC(=O)C[C@H]1C(C)(C)C(=O)[C@@H]2CC3=C(CC[C@]4(C)C3=CC(=O)O[C@H]4c3ccoc3)[C@@]1(C)C2=O [CARAPIN-8(9)-ENE]	-0.62	
C=C1CC/C=C(\C)CC[C@@H]2[C@@H]1CC2(C)C [CARYOPHYLLENE [t(-)]]	0.32	Cytotoxicity (%) (HCT-8 host cells (Hs18S)): 20.0%
C[C@H](CCC(=O)O)[C@H]1CC[C@H]2[C@@H]3[C@H](O)C[C@@H]4C[C@H](O)CC[C@]4(C)[C@H]3C[C@H](O)[C@]12C [CHOLIC ACID]		inhibition at 10 µM (Cryptosporidium parvum; Cryptosporidium parvum, HCT-8, primary screening at 10 uM, read-out: Inhibition (%)): 26.7%
CCC(C)C(=O)O[C@@H]1C[C@@]2(C)[C@H](c3ccoc3)OC(=O)CC23OC2(C)OC34[C@H](OC(=O)C(C)C)[C@@]3(O)[C@@H](OC(=O)C5(C)OC5C)[C@@]5(C)C[C@]3(O)[C@@](C)([C@H]5CC(=O)OC)C14O2 (stereo partly drawn) [ENTANDROPHRAGMIN]	-0.12	
CN[C@@H](C)[C@H](O)c1ccccc1.Cl [EPHEDRINE (1R,2S) HYDROCHLORIDE]		Inhibition (%) (Cryptosporidium parvum; primary screening at 10 uM): 11.97%
COc1cc(/C=C/C(=O)O)ccc1O [FERULIC ACID]	-0.04	
CC[C@H](CC[C@@H](C)[C@H]1CC[C@H]2[C@@H]3CC[C@H]4C[C@@H](O)CC[C@]4(C)[C@H]3CC[C@]12C)C(C)C [FUCOSTANOL]	-0.69	Cytotoxicity (%) (HCT-8 host cells (Hs18S)): -61.6%
Cc1cc(=O)oc2cc(O)ccc12 [HYMECHROME]	-0.28	
CC(=O)Oc1cc(-c2coc3cc(OC(C)=O)c(OC(C)=O)c(OC(C)=O)c3c2=O)cc(OC(C)=O)c1OC(C)=O [IRIGINOL HEXAACETATE]	-0.17	
CC1(C)C=Cc2c(c3c(c4c(=O)c(-c5ccc(O)c(O)c5)coc24)OC(C)(C)CC3)O1 [ISOPOMIFERIN]	-0.07	Cytotoxicity (%) (HCT-8 host cells (Hs18S)): -5.3%
CNCc1ccccc1.Cl [N-METHYLBENZYLAMINE HYDROCHLORIDE]	-0.08	
Cl.NCCC[C@H](N)C(=O)O [ORNITHINE HYDROCHLORIDE]		Inhibition (%) (Cryptosporidium parvum; primary screening at 10 uM): -42.36%
CCCCCCCCCCCC[C@@H](C(=O)O)[C@H](C)C(=O)O [ROCCELLIC ACID]	-0.06	Cytotoxicity (%) (HCT-8 host cells (Hs18S)): -4.1%
COc1cc(/C=C/C(=O)O)cc(OC)c1O [SINAPIC ACID]	0.25	
COc1ccc(-c2cc(=O)c3c(OC)c(OC)c(OC)c(OC)c3o2)cc1 [TANGERITIN]	0.12	Cytotoxicity (%) (HCT-8 host cells (Hs18S)): 8.0%
Cc1c(S(=O)(=O)[O-])oc2c1C(=O)C(=O)c1c-2ccc2c1CCCC2(C)C.[Na+] [TANSHINONE IIA SULFONATE SODIUM]	0.01	
COC1=C(OC)C(=O)C(C/C=C(\C)CC/C=C(\C)CC/C=C(\C)CC/C=C(\C)CC/C=C(\C)CC/C=C(\C)CC/C=C(\C)CC/C=C(\C)CC/C=C(\C)CCC=C(C)C)=C(C)C1=O [UBIDECARENEONE]	0.35	Cytotoxicity (%) (HCT-8 host cells (Hs18S)): 21.3%
COc1c(O)cc2oc3cc(O)c(CC=C(C)C)c(O)c3c(=O)c2c1CC=C(C)C [alpha-MANGOSTIN]	4.36	Cytotoxicity (%) (HCT-8 host cells (Hs18S)): 95.1%
COc1cc2c(cc1OC)C1C(=O)c3c(O)cc4c(c3OC1CO2)C=CC(C)(C)O4 (stereo not drawn) [alpha-TOXICAROL (dl)]	0.01	
HECOGENIN	-0.23	
ISOTECTORIGENIN, 7-METHYL ETHER		Inhibition (%) (Cryptosporidium parvum; primary screening at 10 uM): -18.66%
MEPARTRICIN	-0.51	
MONENSIN SODIUM (monensin A is shown)		Inhibition (%) (Cryptosporidium parvum; primary screening at 10 uM): 94.05%; % Inhibition (3.3 uM) (Cryptosporidium parvum; secondary screening at 3.3 uM): 99%
